Assay results reported in BigSolDB 2.1.

Clc1ncnc2[nH]ccc12
solubility (mole fraction)
Conditions | 278.15 K | 283.15 K | 288.15 K | 293.15 K | 298.15 K | 303.15 K | 308.15 K | 313.15 K | 318.15 K | 323.15 K
in THF | 0.0461 | 0.0501 | 0.0544 | 0.0594 | 0.0644 | 0.0699 | 0.0757 | 0.0818 | 0.0881 | 0.0954
in acetone | 0.0146 | 0.0165 | 0.0187 | 0.021 | 0.0238 | 0.0265 | 0.0296 | 0.0331 | 0.0368 | 0.0409
in acetonitrile | 0.00218 | 0.00277 | 0.00338 | 0.00413 | 0.00502 | 0.00615 | 0.00736 | 0.00881 | 0.0104 | 0.0124
in ethanol | 0.00849 | 0.0098 | 0.0113 | 0.0131 | 0.0151 | 0.0174 | 0.0199 | 0.0225 | 0.0256 | 0.0291
in ethyl acetate | 0.0132 | 0.0151 | 0.0172 | 0.0194 | 0.0218 | 0.0246 | 0.0274 | 0.0307 | 0.034 | 0.0376
in isopropanol | 0.00973 | 0.0113 | 0.0131 | 0.0151 | 0.0174 | 0.0198 | 0.0226 | 0.0258 | 0.0291 | 0.0328
in methanol | 0.0065 | 0.00781 | 0.0093 | 0.011 | 0.013 | 0.0152 | 0.0177 | 0.0205 | 0.0236 | 0.0272
in n-butanol | 0.0122 | 0.0139 | 0.0157 | 0.0179 | 0.0202 | 0.0227 | 0.0254 | 0.0285 | 0.0317 | 0.0354
in n-heptane | 0.000583 | 0.00075 | 0.00095 | 0.0012 | 0.0015 | 0.00187 | 0.00229 | 0.00281 | 0.00343 | 0.00415
in n-hexane | 0.000393 | 0.000511 | 0.000652 | 0.000851 | 0.00106 | 0.00132 | 0.00165 | 0.00202 | 0.0025 | 0.00306
in n-propanol | 0.0098 | 0.0114 | 0.0134 | 0.0155 | 0.018 | 0.0205 | 0.0235 | 0.0269 | 0.0305 | 0.0347
in toluene | 0.000808 | 0.000993 | 0.00124 | 0.00153 | 0.00186 | 0.00225 | 0.00272 | 0.00324 | 0.00387 | 0.00461
